Test results published in patent publication US20220299513A1, “IRF2 AS A PROGNOSTIC BIOMARKER AND TARGET FOR AUGMENTING IMMUNOTHERAPY” (University of Massachusetts, priority 2019, published 2022).

How the values were obtained:
[1] = system: surface MHC-I on IRF2-KO DC3.2; assay: Surface MHC-I on IRF2-KO DC3.2 after interferon stimulation (flow cytometry); type: cell-based, mouse
Experimental: (§1) FIGS. 5A-E. IRF2-IRF1 balance. (A) Normalized MFI of surface MHC I and PD-L1 levels on the indicated single or double (IRF1+IRF2, double knock out (DKO)) DC3.2 knockout lines after overnight incubation with either media alone or 2 ng/mL IFNγ; bars represent mean+SEM (N≥3); (B) Western blot for IRF1 and IRF2 (and β-actin as loading control) in the DC3.2 knockout lines in the absence or presence of 2 ng/mL IFNγ for the durations indicated; (C) ChIP-qPCR of DC3.2 WT cells stimulated with ±2 ng/mL IFNγ for 2 hrs for TAP2 (top), ERAP1 (middle), or PD-L1 (bottom) DNA with rabbit anti-IRF2 IgG, rabbit anti-IRF1 IgG, or normal rabbit IgG (control). Bars represent mean +SEM fold enrichment (2^^-ΔCt) over the normal rabbit IgG control IP (N=2); (d, e) Heatmap of genes differentially expressed between the DC knockout lines (D) at baseline or (E) after stimulation with ±2 ng/mL IFNγ for 2 hrs. For clarity, only a few genes are shown. Statistical analysis by two-tailed ratio paired t-tests. *p<0.05, **p<0.01, ***p<0.001, ****p<0.0001, ns=not significant.
FIGS. 10A-B. (A) Normalized MFI of surface MHC I and PD-L1 levels on DC3.2 stable knockout lines after overnight incubation with 5,000 U/mL IFNα; bars represent mean+SEM (N=3). Statistical analysis by two-tailed ratio paired t-tests. […]

[2] = system: surface MHC-I on A549 cells; assay: Surface MHC-I on IFNγ-stimulated A549 (flow cytometry); type: cell-based, human; conditions: overnight IFNγ stimulation
Description: (§2) FIGS. 6A-J. IRF2 and cancer. (A) Differential IRF2 expression in tumor and normal tissue from patients with the indicated cancer types (TCGA abbreviations), as queried from TIMER^29; (B) IRF2 mRNA expression in patient NSCLC specimens scored as PD-L1 low (1-50%) or high (>50%) by immunohistochemistry. IRF2 mRNA expression was normalized to GAPDH mRNA expression in each lung specimen and then IRF2 expression across specimens was compared by calculating fold changes over the lowest IRF2-expressing specimen, which was set equal to 1. Statistical analysis by Mann-Whitney U test, **p<0.01; (C) TAP2 (top) and ERAP1 (bottom) mRNA correlations with IRF2 mRNA in NSCLC specimens. Linear regression models shown with R^2 for goodness of fit. (D-E) Geometric MFI of surface MHC I (left) and PD-L1 (right) on (D) unstimulated or (E) overnight IFNγ-stimulated A549 lines knocked out for IRF2 (“IRF2 KO”) or control (“WT”) or overexpressing IRF2 or empty vector (EV) as control. Bars represent mean +SEM (N=3). Statistical analysis by two-tailed ratio paired t-tests. *p<0.05, **p<0.01, ***p<0.001; (F) Geometric MFI of surface MHC-I and PD-L1 on unstimulated or IFNγ-stimulated human breast carcinoma (BT20 and MCF7) lines knocked out for IRF2 (“IRF2 KO”) or control (“WT”). […] After 4 hours, specific killing was quantified by flow cytometry. […]

[3] = system: surface PD-L1 on A549 cells; assay: Surface PD-L1 on IFNγ-stimulated A549 (flow cytometry); type: cell-based, human; conditions: overnight IFNγ stimulation
Description: as §2

[4] = system: PD-L1 promoter in DC3.2 WT cells; assay: ChIP-qPCR of IRF1/IRF2 binding to the PD-L1 promoter after IFNγ stimulation; type: cell-based, mouse; conditions: 2 ng/mL IFNγ for 2 hrs
Experimental: as §1
It is well-established that IRF1 can promote IFNγ-inducible activation of PD-L1^27,28. […]
ChIP procedure generally followed the Thermo Fisher ChIP protocol. […] Chromatin was sheared by sonication for 20 min and fragment size (˜300 bp) was determined by gel electrophoresis. […]

[5] = system: IRF2 mRNA in F221 murine sarcoma cells; assay: IRF2 mRNA levels by qPCR in drug-treated F221 cells; type: cell-based; conditions: Vorinostat 1 uM or 5 uM, Decitabine 5 uM, 24 hrs, vs DMSO control
Experimental: (§3) FIGS. 13A-B. (A) IRF2 & TAP2 mRNA levels, and MHC I surface protein levels in […] murine sarcoma cells treated with Vorinostat (1 uM or 5 uM), Decitabine (5 uM), or control diluent (DMSO) with no drug; (B) surface expression of MHC I on […] MCA-sarcoma cells treated with Vorinostat (5 uM) and/or Decitabine (5 uM). RNA was extracted from cell lines using the RNeasy kit (Qiagen) or from formalin-fixed paraffin-embedded non-small cell lung cancers using the RNeasy FFPE kit (Qiagen) and reverse transcribed to cDNA using EcoDry pre-mix random hexamers (Clontech). 50 ng cDNA were used per well (done in triplicate) with indicated TaqMan probes (Applied Biosystems), according to the manufacturer's instructions. The TaqMan probes used were as follows: We tested two epigenetic modifiers on an IRF2low, MHC I low murine cancer cell line ([…] MCA-sarcoma). […] murine sarcoma cells were treated with Vorinostat (1 uM or 5 uM), Decitabine (5 uM), or control diluent (DMSO) with no drug for 24 hrs and then assayed for IRF2 and TAP2 mRNA levels by qPCR and MHC I protein levels by flow cytometry.

[6] = system: TAP2 mRNA in F221 murine sarcoma cells; assay: TAP2 mRNA levels by qPCR in drug-treated F221 cells; type: cell-based; conditions: Vorinostat 1 uM or 5 uM, Decitabine 5 uM, 24 hrs, vs DMSO control
Experimental: as §3

[7] = system: surface MHC I (H-2Kb) on F221 MCA-sarcoma cells; assay: Surface MHC I protein levels by flow cytometry in drug-treated F221 cells; type: cell-based; conditions: F221 murine sarcoma cells; Vorinostat 1 uM or 5 uM, Decitabine 5 uM; 24 hrs; vs DMSO control
Description: Where indicated, mouse cells were blocked with 2.4G2 and stained for surface MHC class I levels with anti-K^b-APC (eBioscience, AF6-88.5.5.3), MHC class II levels with anti-I^A/I^E-PECy7 (BioLegend, M5/114.15.2), PD-L1 levels with anti-PD-L1-PE (BioLegend, 10F.9G2), or with isotype controls (eBioscience mouse IgG2a-APC eBM2a, eBioscience rat IgG2b κ-PE eB149) at 1:200 dilutions.
We tested two epigenetic modifiers on an IRF2low, MHC I low murine cancer cell line (F221 MCA-sarcoma). F221 murine sarcoma cells were treated with Vorinostat (1 uM or 5 uM), Decitabine (5 uM), or control diluent (DMSO) with no drug for 24 hrs and then assayed for IRF2 and TAP2 mRNA levels by qPCR and MHC I protein levels by flow cytometry.
In addition, F221 MCA-sarcoma cells were treated with a combination of Vorinostat (5 uM) and/or Decitabine (5 uM) for 24 hrs and then surface expression of MEW I molecules were quantified by flow cytometry.

Compound: IFNγ: interferon gamma used to stimulate cells (mouse IFNγ 2 ng/mL for DC3.2)
- surface MHC-I expression in the IRF2-KO DC3.2 ([1]; overnight incubation with 2 ng/mL IFNγ): restored
- surface MHC-I expression [2]: augmented
- surface PD-L1 expression [3]: augmented
- IRF1 binding to the PD-L1 promoter [4]: increased IRF1 binding
- IRF2 binding to the PD-L1 promoter [4]: decreased IRF2 binding

Compound: O=C(CCCCCCC(=O)Nc1ccccc1)NO [Vorinostat, Suberoylanilide hydroxamic acid]
- expression of IRF2 mRNA [5]: increased
- mRNA for IRF2's target gene, TAP2 [6]: increased
- surface MHC I (H-2Kb) protein levels [7]: increased

Compound: IFNα
- surface MHC-I expression in the IRF2-KO DC3.2 ([1]; overnight incubation with 5,000 U/mL IFNα): restored
